Some results are limits rather than exact numbers.

Data set [1] relates to Caco-2 cells. As to the kind of experiment: MTT cytotoxicity against Caco-2 cells. Type of data set: cell-based, human. The following applies: Homo sapiens, Caco-2, 24 h, 24 h incubation, mean ± SD of three analyses, read-out: IC50 Conc. against Caco-2 cells. The protocol:
(§1) The American Type Culture Collection (ATCC) provided WI-38 (ATCC CCL-75), a cell line from the healthy human embryonic lung, and Caco-2 (ATCC HTB-37), a cell line from colon cancer. These cells were developed in DMEM medium that was supplemented with antibiotics and fetal bovine serum in a 5% CO2 humidified incubator at 37 °C.
The toxicity of the tested compounds (3a–3k) toward Caco-2 cancer cells was examined and compared to 5-Fluorouracil (5-FU, the standard reference drug) utilizing MTT assay, as previously explained. In brief, 1 × 10^5 Caco-2 cells/mL were distributed into each well of a 96-well plate and kept overnight at 37 °C in their growth mixture. The cells were then subjected to the various doses of the studied compounds (50–1000 µM). Following that, the cells were exposed to MTT solution, which induced formazan formation from the MTT, a byproduct of the metabolism of MTT that is proportionate to the quantity of intact cells. To further dissolve the formazan crystal, dimethyl sulfoxide was applied to the cells. Caco-2 survival was obtained through measuring the value of the optical density at 570 nm implementing a microplate reader (Bio-Rad, Hercules, CA, USA), and the effect of the substances on cell proliferation was expressed using the aforementioned formula (2):Cell viability % = (Abs. of tested sample − Abs. of blank)/(Abs. of control − Abs. of blank) × 100(2)
The half-suppression (IC50) dose of the test drugs over a 24 h incubation period was identified through examination of the concentration–response curve. Each value was evaluated three times, and the average of the three ratings was employed to obtain the results.

For data set [2], the system named is wi38 cells. The data set is described as follows: MTT test on healthy WI38 cells. To be noted: 24 h. Format: cell-based, human. The protocol:
as §1
The effects of the investigated compounds on the survival of healthy cells, WI38, have been evaluated and compared to 5-Fluorouracil (5-FU, the standard reference drug) utilizing the MTT test at concentrations ranging from 50 to 1000 µM to further determine whether the substances were secure for usage on living tissues. Three distinct evaluations of each value were carried out to calculate the final findings.
(Tetrazolium dyes change colour on reduction, which living cells bring about.)

`O=C(/C=C/C=C/c1ccccc1)c1cccs1` [3c, (2E,4E)-5-phenyl-1-(thiophen-2-yl)penta-2,4-dien-1-one] displayed a melting point of 102 °C. Also, the 50% inhibitory concentration (IC50) in data set [1] is greater than 1000 µM.

The molecule `O=C(/C=C/C=C/c1ccccc1)c1ccccn1` [3a, (2E,4E)-5-phenyl-1-(pyridin-2-yl)penta-2,4-dien-1-one] returned a melting point of 182 °C. In addition, the IC50 in data set [1] is 725.6 ± 3.69 µM.

As to `O=c1[nH]cc(F)c(=O)[nH]1` [5-FU, 5-Fluorouracil, reference compound], the 50% inhibitory concentration (IC50) in data set [1] is 33.1 ± 1.45 µM; in data set [2] (Homo sapiens, WI-38, 50–1000 µM, read-out: IC50 against normal wi38 cell) it was 22.8 ± 2.46 µM. For the same molecule, the “effect on wi38 normal cell viability” value in data set [2] (50 to 1000 µM) is recorded as “decrease in wi38 cell viability with increasing its concentration”.

Molecule `COc1ccccc1/C=C/C=C/C(=O)c1ccc[nH]1` [3g, (2E,4E)-5-(2-methoxyphenyl)-1-(1H-pyrrol-2-yl)penta-2,4-dien-1-one] showed a melting point of 177 °C. Moreover, the IC50 in data set [1] was 336 ± 4.96 µM.

In turn, `O=C(/C=C/C=C/c1ccccc1)c1cccnc1` [3b, (2E,4E)-5-phenyl-1-(pyridin-3-yl)penta-2,4-dien-1-one] showed a melting point of 104 °C. The half-maximal inhibitory concentration (IC50) in data set [1] is greater than 1000 µM.

As for `COc1ccccc1/C=C/C=C/C(=O)c1ccccn1` [3f, (2E,4E)-5-(2-methoxyphenyl)-1-(pyridin-2-yl)penta-2,4-dien-1-one], the melting point is 195 °C. Moreover, in data set [1], the IC50 was found to be 173 ± 3.84 µM.

`O=C(/C=C/C=C/c1ccc([N+](=O)[O-])cc1)c1ccccn1` [3h, (2E,4E)-5-(4-nitrophenyl)-1-(pyridin-2-yl)penta-2,4-dien-1-one] gave a melting point of 205 °C. The IC50 in data set [1] is 548.6 ± 3.76 µM.

`O=C(/C=C/C=C/c1ccc([N+](=O)[O-])cc1)c1ccco1` [3k, (2E,4E)-1-(furan-2-yl)-5-(4-nitrophenyl)penta-2,4-dien-1-one]: the melting point worked out at 189 °C. In addition, the 50% inhibitory concentration (IC50) in data set [1] worked out at 130 ± 3.28 µM.

As to `O=C(/C=C/C=C/c1ccccc1)c1ccco1` [3d, (2E,4E)-1-(furan-2-yl)-5-phenylpenta-2,4-dien-1-one], in data set [1], the IC50 was greater than 1000 µM.

On to `O=C(/C=C/C=C/c1ccc([N+](=O)[O-])cc1)c1cccnc1` [3i, (2E,4E)-5-(4-nitrophenyl)-1-(pyridin-3-yl)penta-2,4-dien-1-one], for which the half-maximal inhibitory concentration (IC50) in data set [1] amounted to 207 ± 2.31 µM.

The molecule `O=C(/C=C/C=C/c1ccc([N+](=O)[O-])cc1)c1cccs1` [3j, (2E,4E)-5-(4-nitrophenyl)-1-(thiophen-2-yl)penta-2,4-dien-1-one] returned a melting point of 218 °C. Besides, in data set [1], the IC50 was found to be 149 ± 2.55 µM.

By IC50 is commonly meant the concentration needed to halve the response being measured. The term melting point denotes the temperature, or range, at which the solid turns liquid.
